Experimental data taken from patent US9340573B2, “Azaindolines” (Hoffmann-La Roche Inc., priority 2012, dated 2016).
Structures can show the parent of a compound that is named as a salt. Where two headings read alike, the source gives them in different places.

How the values were obtained:
[1] = biological target: BIR2 domain of XIAP (Homo sapiens (Human), UniProt P98170, C202A/C213G); test: TR-FRET assay for BIR2: inhibition of binding of the XIAP BIR2 domain to Peptide A (SMAC-derived peptide)
Procedure: (§1) TR-FRET Assay for BIR2 and BIR3
(§2) The ability of a test compound to inhibit the binding of BIR2 and/or BIR3 domains of the XIAP protein to Peptide A (a SMAC-derived peptide described below) evidences that the test compound acts as a SMAC-mimetic resulting in reactivation of a cell's apoptotic pathway.
(§3) The peptides were labeled with the fluorescent tags FITC or TAMRA and Kd values were determined by fluorescence polarization assay. […] The peptide sequence was derivatized with biotin to provide […]-(ε-biotin)-OH 1:2 TFA as the substrate for the TR-FRET assay.
The XIAP protein sequence was obtained from the SWISS-PROT protein sequence database and the BIR2 and BIR3 domains were derived from that. The sequence of the BIR2 domain used for the TR-FRET assay is […].
(§4) Ten nanomolar of 6× Histidine-tagged BIR2 domain, corresponding to amino acids 124-240 of XIAP, or BIR3 domain, corresponding to amino acids 241-356 of XIAP, was mixed with 20 nM of the peptide […]-(ε-biotin)-OH 1:2 TFA, in the presence of 50 mM Tris-Cl, pH 7.5, 100 mM NaCl, 1 mM dithiothreitol (DTT) and 0.1 mg/mL bovine serum albumin (BSA). Following a […] incubation at 37° C., Europium-Streptavidin and Allophycocyanin conjugated anti-Histidine antibody were added to a final concentration of 1.5 nM and 15 nM, respectively. Time-resolved fluorescence resonance energy transfer (TR-FRET) signals were measured 1 hour later at room temperature. Test compound potency was assessed at 10 serially diluted concentrations. Percentage of inhibition at each concentration was determined to generate an IC50 value for each test compound.

[2] = biological target: BIR3 domain of XIAP (Homo sapiens (Human), UniProt P98170); test: TR-FRET assay for BIR3: inhibition of binding of the XIAP BIR3 domain to Peptide A (SMAC-derived peptide)
Procedure: as §1, §2, §3
The sequence of the BIR3 domain used for the TR-FRET assay is […]
as §4

[3] = 6x His-tagged BIR2 domain (aa 124-240 of XIAP), 10 nM, 20 nM Peptide A, TR-FRET, read-out: Ic50 BIR2
[4] = 6x His-tagged BIR3 domain (aa 241-356 of XIAP), 10 nM, 20 nM Peptide A, TR-FRET, read-out: Ic50 BIR3

Sequence of BIR2 domain of XIAP (P98170 other isoform, or with tags, fused parts or gaps, stated change not applied): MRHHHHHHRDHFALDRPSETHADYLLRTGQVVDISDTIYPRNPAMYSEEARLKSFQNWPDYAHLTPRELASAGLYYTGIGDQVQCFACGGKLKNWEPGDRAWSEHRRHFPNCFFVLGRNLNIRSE
Sequence of BIR3 domain of XIAP (P98170 other isoform, or with tags, fused parts or gaps): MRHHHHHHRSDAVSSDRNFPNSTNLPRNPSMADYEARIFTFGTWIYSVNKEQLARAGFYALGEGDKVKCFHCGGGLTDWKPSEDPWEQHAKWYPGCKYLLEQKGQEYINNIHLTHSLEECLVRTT

| IC50 [1, 3] | IC50 [2, 4] | Compound | other results |
| --- | --- | --- | --- |
| 0.888 µM | 53 µM | CN[C@@H](C)C(=O)N[C@H](C(=O)N1c2ncccc2C[C@H]1CNC(=O)c1ccccc1)C(C)C [Example 1, N—{(S)-1-[(S)-3-Methyl-2-((S)-2-methylamino-propionylamino)-butyryl]-2,3-dihydro-1H-pyrrolo[2,3-b]pyridin-2-ylmethyl}-benzamide, hydrochloride] | – |
| – | – | CN[C@@H](C)C(=O)N[C@H](C(=O)N1c2ncccc2CC1CNC(C)=O)C(C)C (stereo partly drawn) [Example 2, (S)-N-{(S)-1-[2-(Acetylamino-methyl)-2,3-dihydro-pyrrolo[2,3-b]pyridine-1-carbonyl]-2-methyl-propyl}-2-methylamino-propionamide hydrochloride] | IC50 ([1]; read-out: Ic50 BIR2): 4.67 µM; IC50 ([2]; read-out: Ic50 BIR3): > 54.8 µM |
| 1.57 µM | > 54.8 µM | CN[C@@H](C)C(=O)N[C@H](C(=O)N1c2ncccc2C[C@H]1CNC(=O)Cc1ccccc1)C(C)C [Example 4, (S)-2-Methylamino-N-{(S)-2-methyl-1-[(S)-2-(phenylacetylamino-methyl)-2,3-dihydro-pyrrolo[2,3-b]pyridine-1-carbonyl]-propyl}-propionamide hydrochloride] | – |
| 1.67 µM | > 54.8 µM | CN[C@@H](C)C(=O)N[C@H](C(=O)N1c2ncccc2C[C@H]1CNC(=O)OC)C(C)C [Example 5, {(S)-1-[(S)-3-Methyl-2-((S)-2-methylamino-propionylamino)-butyryl]-2,3-dihydro-1H-pyrrolo[2,3-b]pyridin-2-ylmethyl}-carbamic acid methyl ester hydrochloride] | – |
| 6.17 µM | > 54.8 µM | CN[C@@H](C)C(=O)N[C@H](C(=O)N1c2ncccc2C[C@H]1CNC(=O)N(C)C)C(C)C [Example 6, (S)-N-{(S)-1-[(S)-2-(3,3-Dimethyl-ureidomethyl)-2,3-dihydro-pyrrolo[2,3-b]pyridine-1-carbonyl]-2-methyl-propyl}-2-methylamino-propionamide hydrochloride] | – |
| 1.54 µM | > 54.8 µM | CN[C@@H](C)C(=O)N[C@H](C(=O)N1c2ncccc2C[C@H]1CNC(=O)Nc1ccccc1)C(C)C [Example 7, (S)-2-Methylamino-N-((S)-2-methyl-1-{(S)-2-[(3-phenyl-ureido)-methyl]-2,3-dihydro-pyrrolo[2,3-b]pyridine-1-carbonyl}-propyl)-propionamide hydrochloride] | – |
| 2.56 µM | > 54.8 µM | CN[C@@H](C)C(=O)N[C@H](C(=O)N1c2ncccc2C[C@H]1CNC(=O)C(C)c1ccccc1)C(C)C (stereo partly drawn) [Example 8, (S)-2-Methylamino-N-((S)-2-methyl-1-{(S)-2-[(2-phenyl-propionylamino)-methyl]-2,3-dihydro-pyrrolo[2,3-b]pyridine-1-carbonyl}-propyl)-propionamide hydrochloride] | – |
| 1.24 µM | > 54.8 µM | CN[C@@H](C)C(=O)N[C@H](C(=O)N1c2ncccc2C[C@H]1CNS(C)(=O)=O)C(C)C [Example 9, (S)-N-{(S)-1-[(S)-2-(Methanesulfonylamino-methyl)-2,3-dihydro-pyrrolo[2,3-b]pyridine-1-carbonyl]-2-methyl-propyl}-2-methylamino-propionamide hydrochloride] | – |
| 0.82 µM | > 54.8 µM | CN[C@@H](C)C(=O)N[C@H](C(=O)N1c2ncccc2C[C@H]1CNS(=O)(=O)c1ccccc1)C(C)C [Example 10, (S)-N-{(S)-1-[(S)-2-(Benzenesulfonylamino-methyl)-2,3-dihydro-pyrrolo[2,3-b]pyridine-1-carbonyl]-2-methyl-propyl}-2-methylamino-propionamide hydrochloride] | – |
| 1.05 µM | > 54.8 µM | CN[C@@H](C)C(=O)N[C@H](C(=O)N1c2ncccc2C[C@H]1CNC(=O)OCc1ccccc1)C(C)C [Example 11, {(S)-1-[(S)-3-Methyl-2-((S)-2-methylamino-propionylamino)-butyryl]-2,3-dihydro-1H-pyrrolo[2,3-b]pyridin-2-ylmethyl}-carbamic acid benzyl ester] | – |
| – | – | CN[C@@H](C)C(=O)N[C@H](C(=O)N1c2ncccc2C[C@H]1CNC(=O)Oc1ccccc1)C(C)C [Example 12, {(S)-1-[(S)-3-Methyl-2-((S)-2-methylamino-propionylamino)-butyryl]-2,3-dihydro-1H-pyrrolo[2,3-b]pyridin-2-ylmethyl}-carbamic acid phenyl ester hydrochloride] | IC50 [1]: 1.62 µM; IC50 [2]: > 54.8 µM |
| 0.307 µM | 5.34 µM | CN[C@@H](C)C(=O)N[C@H](C(=O)N1c2ncccc2C[C@H]1CNc1ccccc1)C(C)C [Example 13, (S)-2-Methylamino-N—[(S)-2-methyl-1-((S)-2-phenylaminomethyl-2,3-dihydro-pyrrolo[2,3-b]pyridine-1-carbonyl)-propyl]-propionamide, hydrochloride] | – |
| 0.506 µM | 3.95 µM | CN[C@@H](C)C(=O)N[C@H](C(=O)N1c2ncccc2C[C@H]1CNc1ccc2ccccc2c1)C(C)C [Example 14, (S)-2-methylamino-N—{(S)-2-methyl-1-[(S)-2-(naphthalen-2-ylaminomethyl)-2,3-dihydro-pyrrolo[2,3-b]pyridine-1-carbonyl]-propyl}-propionamide hydrochloride] | – |

| Compound | IC50 [1, 3] | IC50 [2, 4] | other results |
| --- | --- | --- | --- |
| CNC(=O)NCC1Cc2cccnc2N1C(=O)[C@@H](NC(=O)[C@H](C)NC)C(C)C (stereo partly drawn) [Example 3, (S)-2-Methylamino-N-((S)-2-methyl-1-{2-[(3-methyl-ureido)-methyl]-2,3-dihydro-pyrrolo[2,3-b]pyridine-1-carbonyl}-propyl)-propionamide hydrochloride] | 4.88 µM | > 54.8 µM | – |
